Laboratory results from the supplement of paper PMC10627819.

Tests used:
S. aureus Newman [1] = experiment: fitness (endpoint OD595 vs no drug) (fraction); higher = more growth
How it was run: (§1)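 Growth medium was TSB, LB Lennox or CY, and plates were kept at 37 °C. Inoculation was at OD595 0.01 in 384-well plates, at 30 µl per well or 55 µl for S. pneumoniae. OD595 was monitored every 30 min for 14 h and background-subtracted using the first reading. Fitness is the optical density on entering stationary phase divided by the robust mean of no-drug controls, with values capped at 1.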

S. aureus DSM 20231 [2] = experiment: as above
How it was run: as §1

B. subtilis 168 [3] = experiment: as above
How it was run: as §1

S. pneumoniae D39V [4] = experiment: as above
How it was run: as §1

S. aureus Newman [5] = experiment: Bliss interaction score (quartile over a dose matrix) (fitness difference); higher = more antagonism (negative = synergy)
How it was run: (§2)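 The Bliss score is observed minus expected fitness, where expected fitness is the product of the single-drug fitness values inferred from the combination data. Fitness is the OD595 at the onset of stationary phase over the plate's robust no-drug mean, capped at 1. Scores are summarised by quartiles over technical, biological and donor/recipient replicates.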

S. aureus DSM 20231 [6] = experiment: as above
How it was run: as §2

B. subtilis 168 [7] = experiment: as above
How it was run: as §2

S. pneumoniae D39V [8] = experiment: as above
How it was run: as §2
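Wherever Bliss interaction score (quartile over a dose matrix) is given: first quartile when negative (synergy) and third quartile when positive (antagonism).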
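Wherever fitness (endpoint OD595 vs no drug) is given: OD595 on entry to stationary phase over no-drug wells; at most 1.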

COc1cccc2c1C(=O)c1c(O)c3c(c(O)c1C2=O)C[C@@](O)(C(=O)CO)C[C@@H]3O[C@H]1C[C@H](N)[C@H](O)[C@H](C)O1 [Doxorubicin] + COc1ccc(C[C@H](N)C(=O)N[C@H]2[C@@H](O)[C@H](n3cnc4c(N(C)C)ncnc43)O[C@@H]2CO)cc1 [Puromycin]
fitness
Conditions | first compound 0.25 µg/mL | first compound 0.5 µg/mL | first compound 0.625 µg/mL | first compound 1 µg/mL | first compound 1.25 µg/mL | first compound 2.5 µg/mL
B. subtilis 168 [3], partner 0.39 µg/mL | – | – | 0.918 | – | 0.879 | 0.558
B. subtilis 168 [3], partner 0.78 µg/mL | – | – | 0.987 | – | 0.925 | 0.45
B. subtilis 168 [3], partner 1.56 µg/mL | – | – | 0.925 | – | 0.89 | 0.336
S. aureus DSM 20231 [2], partner 0.39 µg/mL | – | – | 0.912 | – | 0.869 | 0.803
S. aureus DSM 20231 [2], partner 0.78 µg/mL | – | – | 0.889 | – | 0.954 | 0.783
S. aureus DSM 20231 [2], partner 1.56 µg/mL | – | – | 0.874 | – | 0.858 | 0.733
S. aureus Newman [1], partner 0.39 µg/mL | – | – | 0.84 | – | 0.763 | 0.699
S. aureus Newman [1], partner 0.78 µg/mL | – | – | 0.801 | – | 0.767 | 0.68
S. aureus Newman [1], partner 1.56 µg/mL | – | – | 0.84 | – | 0.725 | 0.678
S. pneumoniae D39V [4], partner 1 µg/mL | 0.998 | ≥ 1 | – | 0.882 | – | –
S. pneumoniae D39V [4], partner 2 µg/mL | 0.926 | 0.914 | – | 0.874 | – | –
S. pneumoniae D39V [4], partner 4 µg/mL | 0.54 | 0.567 | – | 0.399 | – | –

fitness, S. aureus DSM 20231 [2], one replicate
Conditions | first compound 0.625 µg/mL | first compound 1.25 µg/mL | first compound 2.5 µg/mL
partner 3.12 µg/mL | 0.91 | 0.821 | 0.776
partner 6.24 µg/mL | 0.801 | 0.679 | 0.59

Conditions | Bliss interaction score
B. subtilis 168 [7] | -0.059
S. aureus DSM 20231 [6] | -0.0672
S. aureus Newman [5] | -0.0786
S. pneumoniae D39V [8] | 0.0661

COc1cccc2c1C(=O)c1c(O)c3c(c(O)c1C2=O)C[C@@](O)(C(=O)CO)C[C@@H]3O[C@H]1C[C@H](N)[C@H](O)[C@H](C)O1 [Doxorubicin] + CN[C@@H]1[C@H](O)[C@H](NC)[C@H]2O[C@@]3(O)C(=O)C[C@@H](C)O[C@H]3O[C@@H]2[C@H]1O [Spectinomycin]
fitness
Conditions | first compound 0.25 µg/mL | first compound 0.5 µg/mL | first compound 0.625 µg/mL | first compound 1 µg/mL | first compound 1.25 µg/mL | first compound 2.5 µg/mL
B. subtilis 168 [3], partner 2 µg/mL | – | – | 0.919 | – | 0.905 | 0.62
B. subtilis 168 [3], partner 4 µg/mL | – | – | 0.965 | – | 0.954 | 0.594
B. subtilis 168 [3], partner 8 µg/mL | – | – | 0.817 | – | 0.88 | 0.615
S. aureus DSM 20231 [2], partner 4 µg/mL | – | – | 0.901 | – | 0.846 | 0.808
S. aureus DSM 20231 [2], partner 8 µg/mL | – | – | 0.882 | – | 0.89 | 0.84
S. aureus DSM 20231 [2], partner 16 µg/mL | – | – | 0.789 | – | 0.824 | 0.736
S. aureus Newman [1], partner 4 µg/mL | – | – | 0.796 | – | 0.754 | 0.71
S. aureus Newman [1], partner 8 µg/mL | – | – | 0.797 | – | 0.762 | 0.681
S. aureus Newman [1], partner 16 µg/mL | – | – | 0.713 | – | 0.623 | 0.577
S. pneumoniae D39V [4], partner 4 µg/mL | 0.908 | 0.938 | – | 0.921 | – | –
S. pneumoniae D39V [4], partner 8 µg/mL | 0.827 | 0.862 | – | 0.838 | – | –
S. pneumoniae D39V [4], partner 16 µg/mL | 0.686 | 0.661 | – | 0.632 | – | –

fitness, one replicate
Conditions | first compound 0.625 µg/mL | first compound 1.25 µg/mL | first compound 2.5 µg/mL
S. aureus DSM 20231 [2], partner 32 µg/mL | 0.768 | 0.732 | 0.624
S. aureus DSM 20231 [2], partner 64 µg/mL | 0.0549 | 0.0594 | 0.0266
S. aureus Newman [1], partner 32 µg/mL | 0.549 | 0.394 | 0.215
S. aureus Newman [1], partner 64 µg/mL | 0.0592 | 0.0432 | 0.0224

Conditions | Bliss interaction score
B. subtilis 168 [7] | 0.0605
S. aureus DSM 20231 [6] | -0.0571
S. aureus Newman [5] | -0.0787
S. pneumoniae D39V [8] | 0.0399

C[C@@H]1O[C@@H]1P(=O)(O)O [Fosfomycin] + C[n+]1ccc(-c2cc[n+](C)cc2)cc1 [Paraquat]
fitness
Conditions | partner 1.25 µg/mL | partner 1.5 µg/mL | partner 2.5 µg/mL | partner 3 µg/mL | partner 5 µg/mL | partner 6 µg/mL
B. subtilis 168 [3], first compound 1.562 µg/mL | 0.681 | – | 0.673 | – | 0.567 | –
B. subtilis 168 [3], first compound 3.124 µg/mL | 0.529 | – | 0.598 | – | 0.519 | –
B. subtilis 168 [3], first compound 6.248 µg/mL | 0.381 | – | 0.386 | – | 0.3 | –
S. aureus DSM 20231 [2], first compound 0.781 µg/mL | 0.717 | – | 0.7 | – | 0.702 | –
S. aureus DSM 20231 [2], first compound 1.562 µg/mL | 0.593 | – | 0.551 | – | 0.585 | –
S. aureus DSM 20231 [2], first compound 3.124 µg/mL | 0.481 | – | 0.51 | – | 0.476 | –
S. aureus Newman [1], first compound 0.781 µg/mL | 0.542 | – | 0.546 | – | 0.574 | –
S. aureus Newman [1], first compound 1.562 µg/mL | 0.468 | – | 0.47 | – | 0.483 | –
S. aureus Newman [1], first compound 3.124 µg/mL | 0.0901 | – | 0.116 | – | 0.169 | –
S. pneumoniae D39V [4], first compound 1.25 µg/mL | – | 0.985 | – | 0.959 | – | 0.985
S. pneumoniae D39V [4], first compound 2.5 µg/mL | – | 0.974 | – | 0.973 | – | 0.97
S. pneumoniae D39V [4], first compound 5 µg/mL | – | 0.812 | – | 0.831 | – | 0.791

Conditions | Bliss interaction score
B. subtilis 168 [7] | -0.0619
S. aureus DSM 20231 [6] | -0.101
S. aureus Newman [5] | -0.12
S. pneumoniae D39V [8] | -0.0411

C[C@@H]1O[C@@H]1P(=O)(O)O [Fosfomycin] + CC1=C\[C@@H](O)CC(=O)Cc2nc(co2)C(=O)N2CCC=C2C(=O)O[C@H](C(C)C)[C@H](C)/C=C/C(=O)NC\C=C\1 [Virginiamycin M1]
fitness
Conditions | partner 0.0625 µg/mL | partner 0.125 µg/mL | partner 0.25 µg/mL | partner 0.5 µg/mL | partner 1 µg/mL | partner 2 µg/mL
B. subtilis 168 [3], first compound 1.562 µg/mL | 0.728 | 0.688 | 0.727 | – | – | –
B. subtilis 168 [3], first compound 3.124 µg/mL | 0.603 | 0.565 | 0.576 | – | – | –
B. subtilis 168 [3], first compound 6.248 µg/mL | 0.488 | 0.43 | 0.427 | – | – | –
S. aureus DSM 20231 [2], first compound 0.781 µg/mL | 0.755 | 0.783 | 0.783 | – | – | –
S. aureus DSM 20231 [2], first compound 1.562 µg/mL | 0.533 | 0.581 | 0.605 | – | – | –
S. aureus DSM 20231 [2], first compound 3.124 µg/mL | 0.487 | 0.49 | 0.506 | – | – | –
S. aureus Newman [1], first compound 0.781 µg/mL | 0.538 | 0.567 | 0.555 | – | – | –
S. aureus Newman [1], first compound 1.562 µg/mL | 0.503 | 0.511 | 0.528 | – | – | –
S. aureus Newman [1], first compound 3.124 µg/mL | 0.173 | 0.168 | 0.149 | – | – | –
S. pneumoniae D39V [4], first compound 1.25 µg/mL | – | – | – | 0.958 | 0.944 | 0.928
S. pneumoniae D39V [4], first compound 2.5 µg/mL | – | – | – | 0.987 | 0.956 | 0.905
S. pneumoniae D39V [4], first compound 5 µg/mL | – | – | – | 0.852 | 0.831 | 0.854

fitness, one replicate
Conditions | first compound 0.781 µg/mL | first compound 1.25 µg/mL | first compound 1.562 µg/mL | first compound 2.5 µg/mL | first compound 3.124 µg/mL | first compound 5 µg/mL
S. aureus DSM 20231 [2], partner 0.5 µg/mL | 0.847 | – | 0.614 | – | 0.412 | –
S. aureus DSM 20231 [2], partner 1 µg/mL | 0.771 | – | 0.643 | – | 0.386 | –
S. aureus Newman [1], partner 0.5 µg/mL | 0.626 | – | 0.557 | – | 0.299 | –
S. aureus Newman [1], partner 1 µg/mL | 0.614 | – | 0.478 | – | 0.182 | –
S. aureus Newman [1], partner 2 µg/mL | 0.463 | – | 0.297 | – | 0.0494 | –
S. pneumoniae D39V [4], partner 0.15 µg/mL | – | 0.968 | – | 0.926 | – | 0.892
S. pneumoniae D39V [4], partner 0.3 µg/mL | – | 0.89 | – | 0.908 | – | 0.897

Conditions | Bliss interaction score
B. subtilis 168 [7] | 0.0317
S. aureus DSM 20231 [6] | -0.0507
S. aureus Newman [5] | -0.0636
S. pneumoniae D39V [8] | -0.0376
